Like-named read-outs stand apart in the source and are kept apart here.
Tests used:
[1] = target: SHP-2 enzyme (Met1-Leu525) (Homo sapiens (Human), UniProt Q06124); test: SHP2 inhibition enzymatic assay; format: biochemical; settings: read-out: SHP2wt-IC50
Summary of the method: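 SHP-2 (Met1-Leu525), 0.5 nM, activated with 500 nM IRS1 bis-phosphopeptide, preincubated 30 min with compounds in HEPES pH 7.2 buffer with 5 mM DTT. 75 μM DiFMUP added for 30 min at room temperature, stopped with bpV; fluorescence read. IC50 from four-parameter logistic fit of % inhibition.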

[2] = tested on: ERK phosphorylation in KYSE-520 cells; test: Phospho-ERK cellular assay; format: cell-based; settings: KYSE-520 cells, 2 h at 37° C., phospho-ERK1/2 (Thr202/Tyr204) TR-FRET, read-out: PERK IC50
Summary of the method: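 TR-FRET read-out of ERK1/2 Thr202/Tyr204 phosphorylation was taken after overnight antibody incubation at room temperature. Before that, KYSE-520 cells were treated 2 h at 37 °C with compound dilutions and lysed 30 min. Percent inhibition relative to vehicle and cell-free wells was fitted four-parametrically to give IC50.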

[3] = 0.5 nM SHP-2 activated by 500 nM IRS1 peptide, 75 μM DiFMUP substrate

Chain of SHP-2 enzyme (Met1-Leu525) (Q06124 1-525): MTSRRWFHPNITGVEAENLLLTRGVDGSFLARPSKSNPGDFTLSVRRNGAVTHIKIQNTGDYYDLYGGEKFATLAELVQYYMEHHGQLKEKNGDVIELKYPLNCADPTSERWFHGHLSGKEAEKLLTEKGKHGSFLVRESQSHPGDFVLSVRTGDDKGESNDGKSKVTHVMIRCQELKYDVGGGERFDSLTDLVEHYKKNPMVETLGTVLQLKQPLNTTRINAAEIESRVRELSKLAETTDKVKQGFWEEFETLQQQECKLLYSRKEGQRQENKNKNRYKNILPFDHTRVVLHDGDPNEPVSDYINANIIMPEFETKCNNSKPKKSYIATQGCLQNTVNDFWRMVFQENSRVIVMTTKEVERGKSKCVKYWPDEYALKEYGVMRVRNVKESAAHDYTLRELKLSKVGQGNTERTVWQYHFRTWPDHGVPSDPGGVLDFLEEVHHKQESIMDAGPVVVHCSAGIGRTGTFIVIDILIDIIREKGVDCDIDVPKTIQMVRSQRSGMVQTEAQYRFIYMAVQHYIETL

IC50 [1, 3] [nM]	IC50 ([2]; Homo sapiens, KYSE-520, 2 h) [nM]	IC50 [2] [nM]	SMILES	IC50 [1] [nM]	IC50 ([2]; Homo sapiens) [nM]
< 500	< 1000		Cn1c(=O)ccc2c(-c3n[nH]c4nc(N5CC[C@@H]6[C@H](C5)[C@@]6(CN)c5ccccc5F)cnc34)cccc21 [Example 272, 5-(6-((1S,6R,7R)-7-(aminomethyl)-7-(2-fluorophenyl)-3-azabicyclo[4.1.0]heptan-3-yl)-1H-pyrazolo[3,4-b]pyrazin-3-yl)-1-methylquinolin-2(1H)-one]		
< 500	< 1000		Cc1c(-c2n[nH]c3nc(N4CC[C@@H]5[C@H](C4)[C@@]5(CN)c4cccc(F)c4F)cnc23)ccc2nn(C)cc12 [Example 177, ((1S,6R,7R)-7-(2,3-difluorophenyl)-3-(3-(2,4-dimethyl-2H-indazol-5-yl)-1H-pyrazolo[3,4-b]pyrazin-6-yl)-3-azabicyclo[4.1.0]heptan-7-yl)methanamine]		
< 500	< 1000		NC[C@]1(c2ccccc2F)[C@@H]2CCN(c3cnc4c(-c5ccc(F)c(O)c5F)n[nH]c4n3)C[C@@H]21 [Example 355, 3-(6-((1S,6R,7R)-7-(aminomethyl)-7-(2-fluorophenyl)-3-azabicyclo[4.1.0]heptan-3-yl)-1H-pyrazolo[3,4-b]pyrazin-3-yl)-2,6-difluorophenol]		
< 500	< 1000		Cn1cc2c(Cl)c(-c3n[nH]c4nc(N5CCC6C(C5)C6(CN)c5ccccc5)cnc34)ccc2n1 (centres unmarked) [Example 81, (3-(3-(4-chloro-2-methyl-2H-indazol-5-yl)-1H-pyrazolo[3,4-b]pyrazin-6-yl)-7-phenyl-3-azabicyclo[4.1.0]heptan-7-yl)methanamine]		
< 500	< 1000		NC[C@]1(c2ccccc2Cl)[C@@H]2CCN(c3cnc4c(-c5ccnc(N)c5Cl)n[nH]c4n3)C[C@@H]21 [Example 181, 4-(6-((1S,6R,7R)-7-(aminomethyl)-7-(2-chlorophenyl)-3-azabicyclo[4.1.0]heptan-3-yl)-1H-pyrazolo[3,4-b]pyrazin-3-yl)-3-chloropyridin-2-amine]		
< 500	< 1000		NCC1(c2cccnc2)C2CCN(c3cnc4c(-c5cccc(Cl)c5Cl)n[nH]c4n3)CC21 (centres unmarked) [Example 2, [3-[3-(2,3-dichlorophenyl)-1H-pyrazolo[3,4-b]pyrazin-6-yl]-7-(pyridin-3-yl)-3-azabicyclo[4.1.0]heptan-7-yl]methanamine]		
< 500	< 1000		Cc1csc(C2(CN)C3CCN(c4cnc5c(-c6cccc7ncccc67)n[nH]c5n4)CC32)n1 (centres unmarked) [Example 88, (7-(4-methylthiazol-2-yl)-3-(3-(quinolin-5-yl)-1H-pyrazolo[3,4-b]pyrazin-6-yl)-3-azabicyclo[4.1.0]heptan-7-yl)methanamine]		
< 500		< 1000	Cc1csc([C@@]2(CN)[C@@H]3CN(c4cnc5c(-c6ccc7nnsc7c6Cl)n[nH]c5n4)C[C@@H]32)n1 [Example 479]		
< 500	< 1000		CN1C(=O)COc2ccc(-c3n[nH]c4nc(N5CC[C@@H]6[C@H](C5)[C@@]6(CN)c5ccccc5F)cnc34)c(Cl)c21 [Example 228, 6-(6-((1S,6R,7R)-7-(aminomethyl)-7-(2-fluorophenyl)-3-azabicyclo[4.1.0]heptan-3-yl)-1H-pyrazolo[3,4-b]pyrazin-3-yl)-5-chloro-4-methyl-2H-benzo[b][1,4]oxazin-3(4H)-one]		
< 500	< 1000		NC[C@]1(c2cccc(F)c2F)[C@@H]2CCN(c3cnc(Sc4ccnc(N)c4Cl)c(N)n3)C[C@@H]21 [Example 429, 3-((2-amino-3-chloropyridin-4-yl)thio)-6-((1S,6R,7R)-7-(aminomethyl)-7-(2,3-difluorophenyl)-3-azabicyclo[4.1.0]heptan-3-yl)pyrazin-2-amine]		
< 500	< 1000		NC[C@]1(c2ccccc2F)[C@@H]2CCN(c3cnc4nc(N5CCCc6ncccc65)ccc4n3)C[C@@H]21 [Example 406, ((1S,6R,7R)-3-(6-(3,4-dihydro-1,5-naphthyridin-1(2H)-yl)pyrido[2,3-b]pyrazin-2-yl)-7-(2-fluorophenyl)-3-azabicyclo[4.1.0]heptan-7-yl)methanamine]		
< 500	> 5000		Cc1cc(C2(CN)C3CCN(c4nc5[nH]nc(-c6ccnc(N)c6Cl)c5nc4CO)CC32)no1 (centres unmarked) [Example 58, (3-(2-amino-3-chloropyridin-4-yl)-6-(7-(aminomethyl)-7-(5-methylisoxazol-3-yl)-3-azabicyclo[4.1.0]heptan-3-yl)-1H-pyrazolo[3,4-b]pyrazin-5-yl)methanol]		
< 500	< 1000		NC[C@]1(c2ccccc2F)[C@@H]2CCN(c3cnc4c(-c5ccc(-c6cc(F)cc(F)c6)cc5Cl)n[nH]c4n3)C[C@@H]21 [Example 323, ((1S,6R,7R)-3-(3-(3-chloro-3′,5′-difluoro-[1,1′-biphenyl]-4-yl)-1H-pyrazolo[3,4-b]pyrazin-6-yl)-7-(2-fluorophenyl)-3-azabicyclo[4.1.0]heptan-7-yl)methanamine]		
< 500		< 1000	Cc1csc(C2(CN)[C@@H]3CN(c4cnc5c(-c6ccc7nn(CC#N)cc7c6Cl)n[nH]c5n4)C[C@@H]32)n1 (some centres unmarked) [Example 478]		
< 500	< 1000		Cc1ccc(-c2n[nH]c3nc(N4CC[C@@H]5[C@H](C4)[C@@]5(CN)c4ccccc4F)cnc23)c2ccnn12 [Example 161, ((1S,6R,7R)-7-(2-fluorophenyl)-3-(3-(7-methylpyrazolo[1,5-a]pyridin-4-yl)-1H-pyrazolo[3,4-b]pyrazin-6-yl)-3-azabicyclo[4.1.0]heptan-7-yl)methanamine]		
< 500	< 1000		Cn1cc2c(Cl)c(-c3n[nH]c4nc(N5C[C@@H]6[C@H](C5)[C@@]6(CN)c5nc(Cl)cs5)n(C)c(=O)c34)ccc2n1 [Example 470, 6-((1R,5S,6r)-6-(aminomethyl)-6-(4-chlorothiazol-2-yl)-3-azabicyclo[3.1.0]hexan-3-yl)-3-(4-chloro-2-methyl-2H-indazol-5-yl)-5-methyl-1,5-dihydro-4H-pyrazolo[3,4-d]pyrimidin-4-one]		
< 500	< 1000		NC[C@]1(c2ccccc2F)[C@@H]2CCN(c3cnc4c(-c5ccc(-c6ccn[nH]6)cc5Cl)n[nH]c4n3)C[C@@H]21 [Example 296, ((1S,6R,7R)-3-(3-(2-chloro-4-(1H-pyrazol-5-yl)phenyl)-1H-pyrazolo[3,4-b]pyrazin-6-yl)-7-(2-fluorophenyl)-3-azabicyclo[4.1.0]heptan-7-yl)methanamine]		
			NCC1(c2ccccc2)C2CCN(c3nc4nc(Sc5ccnc(N)c5Cl)cnc4[nH]3)CC21 (centres unmarked) [Example 69, 4-((2-(7-(aminomethyl)-7-phenyl-3-azabicyclo[4.1.0]heptan-3-yl)-1H-imidazo[4,5-b]pyrazin-5-yl)thio)-3-chloropyridin-2-amine]	< 500	1000 to 5000
< 500	< 1000		Cn1cc2c(Cl)c(-c3n[nH]c4nc(N5C[C@@H]6[C@H](C5)[C@@]6(CN)c5nc(C(F)(F)F)cs5)n(C)c(=O)c34)ccc2n1 [Example 471, 6-((1R,5S,6r)-6-(aminomethyl)-6-(4-(trifluoromethyl)thiazol-2-yl)-3-azabicyclo[3.1.0]hexan-3-yl)-3-(4-chloro-2-methyl-2H-indazol-5-yl)-5-methyl-1,5-dihydro-4H-pyrazolo[3,4-d]pyrimidin-4-one]		
< 500		< 1000	Cc1csc([C@@]2(CN)[C@@H]3CN(c4cnc5c(-c6ccc7n[nH]cc7c6Cl)n[nH]c5n4)C[C@@H]32)n1 [Example 505]		
< 500	< 1000		NC[C@]1(c2ccccc2F)[C@@H]2CCN(c3cnc4c(-c5ccc6ccc(=O)[nH]c6c5)n[nH]c4n3)C[C@@H]21 [Example 231, 7-(6-((1S,6R,7R)-7-(aminomethyl)-7-(2-fluorophenyl)-3-azabicyclo[4.1.0]heptan-3-yl)-1H-pyrazolo[3,4-b]pyrazin-3-yl)quinolin-2(1H)-one]		
< 500	< 1000		NC[C@]1(c2ccccc2F)[C@@H]2CCN(c3cnc4c(-c5ccnc(-n6cccc6)c5Cl)n[nH]c4n3)C[C@@H]21 [Example 522, ((1S,6R,7R)-3-(3-(3-chloro-2-(1H-pyrrol-1-yl)pyridin-4-yl)-1H-pyrazolo[3,4-b]pyrazin-6-yl)-7-(2-fluorophenyl)-3-azabicyclo[4.1.0]heptan-7-yl)methanamine]		
< 500	< 1000		Cc1cc(C2(CN)C3CCN(c4cnc5c(-c6cccc7cnccc67)n[nH]c5n4)CC32)no1 (centres unmarked) [Example 23, (3-(3-(isoquinolin-5-yl)-1H-pyrazolo[3,4-b]pyrazin-6-yl)-7-(5-methylisoxazol-3-yl)-3-azabicyclo[4.1.0]heptan-7-yl)methanamine]		
< 500	< 1000		Cc1c(-c2c[nH]c3nc(N4CC[C@@H]5[C@H](C4)[C@@]5(CN)c4ccccc4F)cnc23)ccc2nn(C)cc12 [Example 157, ((1S,6R,7R)-3-(7-(2,4-dimethyl-2H-indazol-5-yl)-5H-pyrrolo[2,3-b]pyrazin-3-yl)-7-(2-fluorophenyl)-3-azabicyclo[4.1.0]heptan-7-yl)methanamine]		

SMILES	IC50 [1, 3] [nM]	IC50 ([2]; Homo sapiens, KYSE-520, 2 h) [nM]	IC50 [2] [nM]	IC50 [1] [nM]	IC50 ([2]; Homo sapiens) [nM]
NC[C@]1(c2ccccc2F)[C@@H]2CCN(c3cnc4c(-c5ccc6c(cnn6C6CC6)c5Cl)n[nH]c4n3)C[C@@H]21 [Example 413]	< 500		< 1000		

Reference: patent US20240109900A1, “AZABICYCLIC SHP2 INHIBITORS” (IRBM S.P.A., priority 2021, published 2024)
